T1: Carbonic anhydrase 15 (Mus musculus) (UniProt Q99N23)
T1 sequence (whole entry): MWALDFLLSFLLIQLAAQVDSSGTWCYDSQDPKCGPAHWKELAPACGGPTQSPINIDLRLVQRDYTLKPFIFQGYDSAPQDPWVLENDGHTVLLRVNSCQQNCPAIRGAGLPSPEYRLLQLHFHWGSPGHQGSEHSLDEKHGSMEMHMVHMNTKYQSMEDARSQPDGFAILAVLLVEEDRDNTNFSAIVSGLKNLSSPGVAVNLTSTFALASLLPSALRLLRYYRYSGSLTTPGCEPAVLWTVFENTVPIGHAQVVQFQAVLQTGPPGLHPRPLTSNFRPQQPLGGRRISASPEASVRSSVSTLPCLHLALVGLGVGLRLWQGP

B1: Carbonic anhydrase 15 (Mus musculus), Q99N23 (protein)
chain: T1 sequence (whole entry)

Key:
[1] = target: Carbonic anhydrase 4 (Homo sapiens) (UniProt P22748); experiment: Activation of human recombinant carbonic anhydrase 4 lacking 20 amino terminal residues by stopped-flow CO2 hydrase method
Chain of Carbonic anhydrase 4 (Homo sapiens) (P22748 whole entry, canonical isoform): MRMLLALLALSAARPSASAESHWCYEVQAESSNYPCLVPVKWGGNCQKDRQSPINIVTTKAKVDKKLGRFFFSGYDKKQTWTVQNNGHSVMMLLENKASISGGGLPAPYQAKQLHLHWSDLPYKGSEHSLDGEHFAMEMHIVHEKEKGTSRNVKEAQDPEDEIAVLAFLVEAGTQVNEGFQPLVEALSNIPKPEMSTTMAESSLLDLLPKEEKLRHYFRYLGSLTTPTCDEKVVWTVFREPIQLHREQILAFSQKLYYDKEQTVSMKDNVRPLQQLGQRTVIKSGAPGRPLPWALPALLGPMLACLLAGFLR

[2] = target: T1, Carbonic anhydrase 15 (Mus musculus); experiment: Activation of membrane associated mouse recombinant carbonic anhydrase 15 isoform by stopped-flow CO2 hydrase method
[3] = substrate: N[C@@H](Cc1c[nH]cn1)C(=O)O; experiment: (§1) Activity of membrane associated mouse recombinant carbonic anhydrase 15 isoform
[4] = substrate: N[C@H](Cc1c[nH]cn1)C(=O)O; experiment: as §1

Row | Molecule | KA [1] | KA [2] | kcat [3] | kcat [4]
1 | N[C@H](Cc1ccc(O)c(O)c1)C(=O)O | 34.7 µM | 4 µM | – | –
2 | N[C@@H](Cc1ccc(O)cc1)C(=O)O | 25.1 µM | 8.9 µM | – | –
3 | NCc1ccccn1 | 5.19 µM | 11.6 µM | – | –
4 | N[C@H](Cc1c[nH]c2ccccc12)C(=O)O | 39.6 µM | 8.7 µM | – | –
5 | NCCc1ccc(O)c(O)c1 | 30.9 µM | 7.1 µM | – | –
6 | N[C@@H](Cc1c[nH]c2ccccc12)C(=O)O | 37.1 µM | 13.5 µM | – | –
7 | NCCc1c[nH]cn1 | 25.3 µM | 18.5 µM | – | –
8 | NCCN1CCNCC1 | 24.9 µM | 10.4 µM | – | –
9 | NCCc1ccccn1 | 7.13 µM | 11.9 µM | – | –
10 | N[C@H](Cc1c[nH]cn1)C(=O)O | 12.3 µM | 14.1 µM | – | –
11 | CNC[C@@H](O)c1ccc(O)c(O)c1 | 45 µM | 6.9 µM | – | –
12 | Nc1ccc(C[C@H](N)C(=O)O)cc1 | 0.079 µM | 16.3 µM | – | –
13 | NCCc1c[nH]c2ccc(O)cc12 | 3.14 µM | 7.5 µM | – | –
14 | N[C@@H](Cc1c[nH]cn1)C(=O)O | 7.3 µM | 32.1 µM | – | –
15 | NCCN1CCOCC1 | 1.3 µM | 9.3 µM | – | –
16 | N[C@@H](Cc1ccc(O)c(O)c1)C(=O)O | 15.3 µM | 6.5 µM | – | –
17 | B1 | – | – | 8.5 ×10⁵ /s | 15 ×10⁵ /s

— ChEMBL document CHEMBL1136977, “Carbonic anhydrase activators. Activation of the membrane-associated isoform XV with amino acids and amines” (Bioorg Med Chem Lett, 2009)
